Structures can show the parent of a compound that is named as a salt.
Tests used:
[1] = system: Cdc2 (Cdk1) tyrosine 15-phosphorylation in NCI-H1299 cells; experiment: Cdc2 (Cdk1) tyrosine 15-phosphorylation-inhibitory effect in camptothecin-treated NCI-H1299 cells (ELISA); format: cell-based; settings: Homo sapiens; NCI-H1299, camptothecin 200 nM 16 hours, then test compound + nocodazole 8 hours; read-out: Cdc2-Y15 Phosphorylation-Inhibitory Effect (H1299, + camptothecin) (EC50)
Description: Pharmacological Test 2 (Method of Determining Drug Potency with Cells (Cdc2 (Cdk1) Tyrosine 15-Phosphorylation-Inhibitory Effect))
Fetal bovine serum (FBS) was obtained from Morgate; media RPMI1640 and DMEM were from Invitrogen; camptothecin was from Sigma; gemcitabine was from Nippon Eli Lilly; nocodazole and protease inhibitor cocktail were from Sigma; rabbit anti-Cdc2 antibody and mouse anti-Cdc2 antibody were from Santa Cruz Biotechnology; rabbit anti-tyrosine 15-phosphorylated Cdc2 antibody and horseradish peroxidase-labeled anti-mouse IgG antibody were from Cell Signaling Technology; sure blue reserve TMB peroxidase substrate was from Kirkegaard and Perry Laboratories.
Human non-small cell lung cancer cells (NCI-H1299) and human colon cancer cells (WiDr) were obtained from American Type Culture Collection (ATCC).
In the method of using NCI-H1299 cells, the cells were suspended in a medium of 10% FBS-added RPMI1640, and the cell suspension was applied to a 96-well Nunclondelta-processed plastic plate (bought from Nunc), in an amount of 2000 cells/100 μL/well, in which the cells were incubated overnight in 5% CO2-95% air at 37° C. Camptothecin was dissolved in dimethylsulfoxide (DMSO), and diluted with a medium of 10% FBS-added RPMI1640, and then this was applied to the plate on which the cells had been previously sowed, in an amount of 50 μL/well in such a manner that the final concentration of camptothecin could be 200 nM. Then, the cells were incubated for 16 hours at 37° C. in 5% CO2-95% air. The test compound was stepwise diluted with DMSO, then diluted with 4000 nM nocodazole-containing, 10% FBS-added RPMI1640, and applied to the plate on which the camptothecin-treated cells had been sowed, in an amount of 50 μL/well. The cells were incubated for 8 hours at 37° C. in 5% CO2-95% air, then the culture was removed, and a cytolytic buffer was added to the plate in an amount of 100 μL/well, shaken at 4° C. for 2 hours, then frozen at −80° C., and thawed to give a cell solution. Cdc2 and tyrosine 15-phosphorylated Cdc2 in the cell solution were determined through enzyme-linked immunosorbent assay (ELISA), and the ratio of tyrosine 15-phosphorylated Cdc2 to Cdc2 was calculated to obtain the 50% phosphorylation-inhibitory concentration of the test compound to the cells (EC50, nM). The cytolytic buffer used herein is an aqueous solution containing 20 mM Hepes (pH 7.5), 150 mM sodium chloride, 1 mM disodium ethylenediaminetetraacetate, 0.1% polyoxyethylene (10) octylphenyl ether, 1% protease inhibitor cocktail, 1 mM dithiothreitol, 2 mM sodium orthovanadate, 10 mM sodium fluoride and 10 mM glycerol diphosphate. Cdc2 was determined through ELISA as follows: A rabbit anti-Cdc2 antibody solution, which had been diluted 200-fold with 50 mM carbonate-bicarbonate buffer (pH 9.6), was applied to a 96-well maxisorpimmuno plate (bought from Nunc), in an amount of 50 μL/well, and statically kept overnight at 4° C. so as to fix the antibody on the plate. Next, this was washed three times with phosphate-buffered physiological saline (PBS), and 5% bovine serum albumin-containing PBS (5% BSA/PBS) was added thereto in an amount of 300 μL/well, and statically kept at room temperature for 2 hours, and then again washed three times with PBS. A mouse anti-Cdc2 antibody solution that had been diluted 100-fold with 0.05% polyoxyethylene sorbitan monolaurate and 1% BSA-containing Tris-HCl-buffered physiological saline (1% BSA/TBS-T) was added to it in an amount of 50 μL/well, and the cell solution was added thereto in an amount of 5 μL/well and statically kept overnight at 4° C. Next, this was washed three times with 0.05% polyoxyethylene sorbitan monolaurate and 0.1% BSA-containing Tris-HCl-buffered physiological saline (0.1% BSA/TBS-T), and then a horseradish peroxidase-labeled anti-mouse IgG antibody solution that had been diluted 2000-fold with 1% BSA/TBS-T was added thereto in an amount of 70 μL/well, and statically kept at room temperature for 3 hours. […]

[2] = system: Human colon cancer cells WiDr; experiment: Tumor growth inhibitory effect, WiDr subcutaneous xenograft in nude rats; format: in vivo, F344/N Jcl-rnu nude rats; settings: gemcitabine 5 mg/kg i.v. days 0, 7, 14, Example 1 15 mg/kg oral days 1, 8, 15, n=5
Description: Pharmacological Test 4 (Tumor Growth Inhibitory Effect)
Human colon cancer cells WiDr (obtained from ATCC) were implanted into the subcutaneous area of the back of F344/N Jcl-rnu nude rats. 12 days after the implantation, 5 mg/kg of gemcitabine (Gemzar, from Eli Lily) was intravenously administered to them; and after 24 hours, a test compound suspended in a solvent (0.5% methyl cellulose) was orally administered thereto. This was repeated once a week for 3 weeks. The tumor volume (0.5×major diameter×(minor diameter)^2) was measured on days 0, 3, 6, 10, 13, 17, 20, 24 and 27 (the first gemcitabine administration is on day 0). The relative tumor volume was calculated, based on the tumor volume on day 0, as 1. The tumor growth rate (% T/C) was obtained according to the formulae mentioned below.
In case where the tumor volume change from day 0 in the test compound administration group is more than 0 (>0): % T/C=(tumor volume change in the test compound group on days 3, 6, 10, 13, 17, 20, 24 and 27/tumor volume change in the control group on days 3, 6, 10, 13, 17, 20, 24 and 27)×100. In case where the tumor volume change from day 0 in the test compound administration group is less than 0 (<0): % T/C=(tumor volume change in the test compound group on days 3, 6, 10, 13, 17, 20, 24 and 27/tumor volume […] in the test compound group on day 0)×100.
Gemcitabine was administered on days 0, 7 and 14. The compound of Example 1 was administered on days 1, 8 and 15.

SMILES: CN1Cc2cc(Nc3ncc4c(=N)n(-c5c(Cl)cccc5Cl)c(=O)[nH]c4n3)ccc2C2(CC2)C1 [Example 1, 3-(2,6-dichlorophenyl)-4-imino-7-[(2′-methyl-2′,3′-dihydro-1′H-spiro[cyclopropane-1,4′-isoquinolin]-7′-yl)amino]-3,4-dihydropyrimido[4,5-d]pyrimidin-2(1H)-one dihydrochloride]
- EC50 [1]: 19 nM
- % T/C day 3 ([2]; day 3): 107%
- % T/C day 6 ([2]; day 6): 100%
- % T/C day 10 ([2]; day 10): 87%
- % T/C day 13 ([2]; day 13): 91%
- % T/C day 17 ([2]; day 17): 88%
- % T/C day 20 ([2]; day 20): 85%
- % T/C day 24 ([2]; day 24): 83%
- % T/C day 27 ([2]; day 27): 88%

SMILES: CN1Cc2cc(Nc3ncc4c(=N)n(-c5c(Cl)cccc5Cl)c(=O)[nH]c4n3)ccc2C(C)(C)C1 [Example 2, 3-(2,6-dichlorophenyl)-4-imino-7-{[2,4,4-trimethyl-1,2,3,4-tetrahydroisoquinolin-7-yl]amino}-3,4-dihydropyrimido[4,5-d]pyrimidin-2(1H)-one]
- EC50 [1]: 27 nM

SMILES: CN1Cc2cc(Nc3ncc4c(=N)n(-c5c(Cl)cccc5Cl)c(=O)[nH]c4n3)ccc2C1(C)C [Example 7, 3-(2,6-dichlorophenyl)-4-imino-7-[(1,1,2-trimethyl-2,3-dihydro-1H-isoindol-5-yl)amino]-3,4-dihydropyrimido[4,5-d]pyrimidin-2(1H)-one]
- EC50 [1]: 17 nM

Source: US8436004B2, “Bicycloaniline derivative” (MSD K.K., priority 2007, dated 2013)
